Test results as given in patent US9981928B2, “Aryl sulfide derivatives and aryl sulfoxide derivatives as acaricides and insecticides” (BAYER CROPSCIENCE AKTIENGESELLSCHAFT, priority 2013, dated 2018).
Where two headings read alike, the source gives them in different places.

Key:
[1] = log P determination by HPLC on reversed-phase columns (C 18), analogously to OECD Guideline 117; type: physicochemical; settings: for logP (HCOOH): LC-MS in the acidic range, pH 2.7, 0.1% aqueous formic acid / acetonitrile; for logP (HCOOH) / logP (neutral): HPLC reversed-phase C 18; for logP (neutral): LC-MS in the neutral range, pH 7.8, 0.001 molar aqueous ammonium hydrogencarbonate / acetonitrile; for chromatographic logP: reversed-phase C18 HPLC column
How it was run: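 Reversed-phase C18 HPLC per OECD 117 with LC-MS detection and a linear 10→95% acetonitrile gradient. Acidic log P run at pH 2.7 with 0.1% formic acid in both eluents. Neutral log P run at pH 7.8 with 0.001 M aqueous ammonium hydrogencarbonate.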

[2] = system: greenhouse red spider mite (Tetranychus urticae); experiment: Tetranychus urticae spray test, OP-resistant (TETRUR), bean leaf disks; type: in vivo; settings: bean leaf disks, after 6 days; for pest or weed control at 500 g/ha: Tetranychus urticae, foliar, 144 h, read-out: efficacy in %
Experimental: Tetranychus urticae—Spray Test, OP-Resistant (TETRUR)
Solvent: 78.0 parts by weight of acetone
• 1.5 parts by weight of dimethylformamide Emulsifier: alkylaryl polyglycol ether
To produce a suitable preparation of active compound, 1 part by weight of active compound is dissolved using the stated parts by weight of solvent and made up with water containing an emulsifier concentration of 1000 ppm until the desired concentration is attained. To produce further test concentrations, the preparation is diluted with emulsifier-containing water.
disks of bean leaves (Phaseolus vulgaris) infested with all stages of the greenhouse red spider mite (Tetranychus urticae) are sprayed with an active compound preparation of the desired concentration.
After 6 days, the efficacy in % is determined. 100% means that all the spider mites have been killed; 0% means that none of the spider mites have been killed.

[3] = acidic range, pH 2.7, 0.1% aqueous formic acid and acetonitrile, read-out: log P[a] / log P(HCOOH)
[4] = neutral range, pH 7.8, 0.001 molar aqueous ammonium hydrogencarbonate and acetonitrile, read-out: log P[b] / log P(neutral)

chromatographic logP [1, 3]	chromatographic logP [1, 4]	Structure (SMILES)	logP (HCOOH) [1]	logP (neutral) [1]	efficacy in % ([2]; application rate 500 g/ha) [%]	efficacy in % ([2]; application rate 100 g/ha) [%]	pest or weed control at 500 g/ha ([2]; application rate 500 g/ha) [%]
–	–	CCn1c(=O)n(C)c(=O)n1-c1cc(SCC(F)(F)F)c(C)cc1F [Example 97]	2.91	2.83	100	–	–
–	–	Cc1cc(F)c(-n2c(=O)n(CC(F)F)c(=O)n2CC(F)(F)F)cc1[S+]([O-])CC(F)(F)F (stereo not shown) [Example 168]	2.60	2.58	90	–	–
–	–	Cc1cc(F)c(-n2c(=O)n(CC3CC3)c(=O)n2C)cc1[S+]([O-])CC(F)(F)F (stereo not shown) [Example 169]	2.30	2.33	–	90	–
1.63	1.63	Cc1ccc(-n2c(=O)n(C)c(=O)n2C)cc1[S+]([O-])CC(F)(F)F (stereo not shown) [Example 21, 1,4-Dimethyl-2-{4-methyl-3-[(2,2,2-trifluoroethyl)sulfinyl]phenyl}-1,2,4-triazolidine-3,5-dione]	–	–	–	–	100
–	–	C#CCn1c(=O)n(-c2cc(SCC(F)(F)F)c(C)cc2F)c(=O)n1C [Example 121]	2.81	–	100	–	–
–	–	Cc1cc(F)c(N2C(=O)N(C3CC3)C(=O)C2C)cc1SCC(F)(F)F (stereo not shown) [Example 214]	3.12	–	100	–	–
–	–	Cc1cc(F)c(N2C(=O)C(C)(C)C(=O)N2c2ccccc2)cc1SCC(F)(F)F [Example 173]	3.64	3.58	90	–	–
–	–	CCn1c(=O)n(-c2ccc(C)c([S+]([O-])CC(F)(F)F)c2)n(C(C)C)c1=O (stereo not shown) [Example 140]	2.56	2.54	90	–	–
–	–	Cc1cc(C)c(N2C(=O)CSC2=NC2CC2)cc1SCC(F)(F)F [Example 112]	3.65	3.65	–	100	–
–	–	CCn1c(=O)n(CC)n(-c2ccc(C)c([S+]([O-])CC(F)(F)F)c2)c1=O (stereo not shown) [Example 138]	2.20	2.19	90	–	–
–	–	Cn1c(=O)n(C2CC2)c(=O)n1-c1ccc(C#N)c([S+]([O-])CC(F)(F)F)c1 (stereo not shown) [Example 43]	1.93	1.90	90	–	–
–	–	Cc1ccc(-n2c(=O)n(C)c(=O)n2-c2ccc(C)c(SCC(F)(F)F)c2)cc1SCC(F)(F)F [Example 56]	4.34	4.05	90	–	–
–	–	Cc1cc(F)c(-n2c(=O)n(C3CCCCC3)c(=O)n2C)cc1SCC(F)(F)F [Example 136]	4.17	4.13	90	–	–
–	–	C=CCn1c(=O)n(C2CC2)c(=O)n1-c1ccc(C)c([S+]([O-])CC(F)(F)F)c1 (stereo not shown) [Example 49]	2.28	2.24	90	–	–
–	–	Cn1c(=O)n(C2CC2)c(=O)n1-c1ccc(C(F)(F)F)c(SCC(F)(F)F)c1 [Example 53]	3.33	3.23	100	–	–
–	–	C#CCn1c(=O)n(-c2cc([S+]([O-])CC(F)(F)F)c(C)cc2F)c(=O)n1C (racemic) [Example 123]	1.96	–	100	–	–
–	–	CCn1c(=O)n(C)n(-c2ccc(C)c([S+]([O-])CC(F)(F)F)c2)c1=O (stereo not shown) [Example 89]	1.96	1.91	100	–	–

chromatographic logP [1, 3]	chromatographic logP [1, 4]	Structure (SMILES)	logP (HCOOH) [1]	logP (neutral) [1]	efficacy in % ([2]; application rate 500 g/ha) [%]	efficacy in % ([2]; application rate 100 g/ha) [%]	pest or weed control at 500 g/ha ([2]; application rate 500 g/ha) [%]
–	–	CCn1c(=O)n(C)c(=O)n1-c1ccc(C)c(SCC(F)(F)F)c1 [Example 51]	2.82	2.83	90	–	–
–	–	COCCCn1c(=O)n(C)n(-c2cc([S+]([O-])CC(F)(F)F)c(C)cc2F)c1=O (stereo not shown) [Example 170]	1.97	1.98	90	–	–
–	–	Cc1cc(F)c(N2C(=O)C(=O)N(C(C)(C)C)C2=S)cc1[S+]([O-])CC(F)(F)F (stereo not shown) [Example 196]	3.45	3.41	90	–	–
–	–	Cc1cc(F)c(-n2c(=O)n(C3CC3)c(=O)n2C(C)C)cc1[S+]([O-])CC(F)(F)F (stereo not shown) [Example 64]	2.51	2.45	90	–	–
–	–	CCCn1c(=O)n(C2CC2)c(=O)n1-c1cc([S+]([O-])CC(F)(F)F)c(C)cc1F (stereo not shown) [Example 172]	2.46	2.42	90	–	–
–	–	C=CCn1c(=O)n(C)c(=O)n1-c1ccc(C)c(SCC(F)(F)F)c1 [Example 58]	3.03	2.88	100	–	–
–	–	Cc1cc(F)c(-n2c(=O)n(C(C)C)c(=O)n2C)cc1[S+]([O-])CC(F)(F)F (stereo not shown) [Example 92]	2.27	2.22	100	–	–
3.71	3.69	CCn1c(=O)n(-c2ccccc2)c(=O)n1-c1cc(SCC(F)(F)F)c(C)cc1F [Example 87, 1-Ethyl-2-{2-fluoro-4-methyl-5-[(2,2,2-trifluoroethyl)sulfanyl]phenyl}-4-phenyl-1,2,4-triazolidine-3,5-dione]	–	–	–	–	90
–	–	CCn1c(=O)[nH]n(-c2cc(SCC(F)(F)F)c(C)cc2F)c1=O [Example 85]	2.43	0.86	90	–	–
3.11	–	Cc1cc(F)c(N2C(=O)N(C)C(=O)C2(C)C)cc1SCC(F)(F)F [Example 217, 1-[2-Fluoro-4-methyl-5-(2,2,2-trifluoroethylsulfanyl)phenyl]-3,5,5-trimethylimidazolidine-2,4-dione]	–	–	–	–	90
2.04	2.01	Cc1cc(F)c(N2C(=O)N(C)C(C)(C)C2=O)cc1[S+]([O-])CC(F)(F)F (stereo not shown) [Example 17, 3-{2-Fluoro-4-methyl-5-[(2,2,2-trifluoroethyl)sulfinyl]phenyl}-1,5,5-trimethylimidazolidine-2,4-dione]	–	–	–	–	100
–	–	Cn1c(=O)n(C)n(-c2ccc(Br)c(SCC(F)(F)F)c2)c1=O [Example 68]	2.83	2.78	100	–	–
1.68	4.24	Cc1cc(F)c(N2CCCC2=NCC(F)(F)F)cc1SCC(F)(F)F [Example 6, 2,2,2-Trifluoro-N-(1-[2-fluoro-4-methyl-5-[(2,2,2-trifluoroethyl)sulfanyl]phenyl]pyrrolidin-2-ylidene)ethanamine]	–	–	–	–	90
–	–	Cc1cc(C)c([S+]([O-])CC(F)(F)F)cc1N1C(=O)C(=O)N(CC(F)(F)F)C1=S (stereo not shown) [Example 188]	3.18	–	90	–	–
–	–	Cc1cc(F)c(N2C(=O)CN(Cc3ccccc3)C2=O)cc1SCC(F)(F)F [Example 204]	3.49	3.48	100	–	–
–	–	Cn1c(=O)n(C2CC2)c(=O)n1-c1ccc(Cl)c([S+]([O-])CC(F)(F)F)c1 (stereo not shown) [Example 39]	2.20	2.17	100	–	–
–	–	CCC1(CC)C(=O)N(C)N(c2cc(SCC(F)(F)F)c(C)cc2F)C1=O [Example 175]	3.41	3.40	100	–	–
